Two molecules from ChEMBL document CHEMBL5550090, “Synthesis and biological evaluation of 1H-pyrrolo[3,2-g]isoquinolines” (Bioorg Med Chem, 2024) can be followed below.

Assay [1] deals with U2OS. In words: Induction of cell cycle arrest in human U2OS cells assessed as proportion of cells at G2/M phase at 0.5 uM incubated for 24 hrs by flow cytometry (reference value: 16%). It is filed as functional.
Assay [2] relates to U2OS. Put plainly: Induction of cell cycle arrest in human U2OS cells assessed as proportion of cells at G1 phase at 0.5 uM incubated for 24 hrs by flow cytometry (reference value: 45%). It is filed as functional. (In general: In flow cytometry, cells or beads pass a laser one at a time.)
For assay [3], the system named is U2OS. In words: Induction of cell cycle arrest in human U2OS cells assessed as proportion of cells at S phase at 0.5 uM incubated for 24 hrs by flow cytometry (reference value: 39%). It is filed as functional.
The target of assay [4] is Dual specificity protein kinase CLK1 (Mus musculus, UniProt P22518). In words: Inhibition of recombinant mouse CLK1 expressed in bacteria using GRSRSRSRSRSR as substrate incubated for 30 mins in presence of ATP by ADP-Glo kinase assay.
The test system of assay [5] is U2OS. In words: Induction of cell cycle arrest in human U2OS cells assessed as proportion of cells at S phase at 2.5 uM incubated for 24 hrs by flow cytometry (reference value: 39%). It is filed as functional.
For assay [6], the target named is T1, Serine/threonine-protein kinase haspin (Homo sapiens, UniProt Q8TF76).
T1 sequence (Q8TF76 whole entry): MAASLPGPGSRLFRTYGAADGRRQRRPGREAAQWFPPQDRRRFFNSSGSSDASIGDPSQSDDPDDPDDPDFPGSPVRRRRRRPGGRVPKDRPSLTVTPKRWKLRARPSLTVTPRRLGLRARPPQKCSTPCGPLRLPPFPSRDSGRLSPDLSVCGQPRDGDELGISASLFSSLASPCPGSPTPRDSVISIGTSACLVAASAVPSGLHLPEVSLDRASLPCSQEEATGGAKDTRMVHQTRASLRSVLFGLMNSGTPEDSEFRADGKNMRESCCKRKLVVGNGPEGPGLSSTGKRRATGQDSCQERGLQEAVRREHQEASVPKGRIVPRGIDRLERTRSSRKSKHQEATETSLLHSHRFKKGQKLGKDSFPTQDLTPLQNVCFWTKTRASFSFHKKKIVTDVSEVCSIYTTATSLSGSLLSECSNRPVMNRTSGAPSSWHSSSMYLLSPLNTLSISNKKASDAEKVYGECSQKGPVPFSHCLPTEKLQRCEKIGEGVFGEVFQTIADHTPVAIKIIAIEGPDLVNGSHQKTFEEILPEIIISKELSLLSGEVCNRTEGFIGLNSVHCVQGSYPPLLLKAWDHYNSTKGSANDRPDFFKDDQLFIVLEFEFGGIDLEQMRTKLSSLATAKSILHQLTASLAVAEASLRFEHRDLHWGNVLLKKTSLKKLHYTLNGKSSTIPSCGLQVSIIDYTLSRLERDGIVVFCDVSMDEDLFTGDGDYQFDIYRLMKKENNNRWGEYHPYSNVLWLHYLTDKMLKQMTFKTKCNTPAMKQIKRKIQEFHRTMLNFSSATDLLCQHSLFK
In words: Inhibition of recombinant human Haspin kinase domain (470 to 798 residues) expressed in bacteria using histone H3 (1 to 21) peptide as substrate incubated for 30 mins in presence of ATP by ADP-Glo kinase assay. (In general: ADP-Glo first removes unused ATP, then detects ADP through luciferase.)

Assay [7] concerns U2OS. Put plainly: Induction of cell cycle arrest in human U2OS cells assessed as proportion of cells at G2/M phase at 2.5 uM incubated for 24 hrs by flow cytometry (reference value: 16%). It is filed as functional.
Assay [8] has as its target T2, Serine/threonine-protein kinase pim-1 (Homo sapiens, UniProt P11309). Put plainly: Inhibition of human recombinant PIM-1 expressed in bacteria assessed as enzyme residual activity using histone H1 as substrate at 1 uM incubated for 30 mins in presence of ATP by ADP-Glo kinase assay.
Target sequence in this assay (P11309 whole entry, looked up): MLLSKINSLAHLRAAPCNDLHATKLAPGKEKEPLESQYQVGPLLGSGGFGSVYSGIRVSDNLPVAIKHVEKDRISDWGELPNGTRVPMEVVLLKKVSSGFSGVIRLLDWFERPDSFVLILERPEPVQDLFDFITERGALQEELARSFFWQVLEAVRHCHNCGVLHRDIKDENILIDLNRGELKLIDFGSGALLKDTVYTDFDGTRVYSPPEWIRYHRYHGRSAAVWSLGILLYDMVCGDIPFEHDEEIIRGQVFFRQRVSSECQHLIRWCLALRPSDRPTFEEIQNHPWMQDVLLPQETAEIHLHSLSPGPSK
For assay [9], the target named is T3, CDK9/cyclin T1 (Homo sapiens) (UniProt O60563+P50750). Put plainly: Inhibition of human recombinant CDK9/cyclin T expressed in baculovirus-infected Sf9 cells assessed as enzyme residual activity using YSPTSPSYSPTSPSYSPTSPSKKKK as substrate at 1 uM incubated for 30 mins in presence of ATP by ADP-Glo kinase assay.
In assay [10] the target is Dual specificity tyrosine-phosphorylation-regulated kinase 1A (Rattus norvegicus, UniProt Q63470). Put plainly: Inhibition of recombinant rat DYRK1A kinase domain (1 to 499 residues) expressed in bacteria using KKISGRLSPIMTEQ as substrate incubated for 30 mins in presence of ATP by ADP-Glo kinase assay.
In assay [11] the target is Glycogen synthase kinase-3 beta (Homo sapiens) (UniProt P49841). In words: Inhibition of human recombinant GSK-3 beta expressed in baculovirus-infected Sf9 cells assessed as enzyme residual activity using YRRAAVPPSPSLSRHSSPHQSpEDEEE as substrate at 1 uM incubated for 30 mins in presence of ATP by ADP-Glo kinase assay.
For assay [12], the target named is Dual specificity tyrosine-phosphorylation-regulated kinase 1A (Rattus norvegicus) (UniProt Q63470). Put plainly: Inhibition of recombinant rat DYRK1A kinase domain (1 to 499 residues) expressed in bacteria assessed as enzyme residual activity using KKISGRLSPIMTEQ as substrate at 1 uM incubated for 30 mins in presence of ATP by ADP-Glo kinase assay.
Assay [13] deals with U2OS. Put plainly: Induction of cell cycle arrest in human U2OS cells assessed as proportion of cells at G1 phase at 5 uM incubated for 24 hrs by flow cytometry (reference value: 45%). It is filed as functional.
In the next assay the test system is TERT-RPE1. Put plainly: cells. Particulars: Homo sapiens, RPE-1, 48 h.
Assay [14] concerns the target Dual specificity tyrosine-phosphorylation-regulated kinase 1A (Rattus norvegicus) (UniProt Q63470). Put plainly: Inhibition of recombinant rat DYRK1A kinase domain (1 to 499 residues) expressed in bacteria assessed as enzyme residual activity using KKISGRLSPIMTEQ as substrate at 10 uM incubated for 30 mins in presence of ATP by ADP-Glo kinase assay.
A further assay has as its system HBL-100. Put plainly: cells. Particulars: Homo sapiens, HBL-100, 48 h.
Assay [15] concerns the target Glycogen synthase kinase-3 beta (Homo sapiens) (UniProt P49841). Put plainly: Inhibition of human recombinant GSK-3 beta expressed in baculovirus-infected Sf9 cells assessed as enzyme residual activity using YRRAAVPPSPSLSRHSSPHQSpEDEEE as substrate at 10 uM incubated for 30 mins in presence of ATP by ADP-Glo kinase assay.
Assay [16] concerns the target T3, CDK9/cyclin T1 (Homo sapiens). Put plainly: Inhibition of human recombinant CDK9/cyclin T expressed in baculovirus-infected Sf9 cells assessed as enzyme residual activity using YSPTSPSYSPTSPSYSPTSPSKKKK as substrate at 10 uM incubated for 30 mins in presence of ATP by ADP-Glo kinase assay.
For assay [17], the system named is U2OS. In words: Induction of cell cycle arrest in human U2OS cells assessed as proportion of cells at G1 phase at 2.5 uM incubated for 24 hrs by flow cytometry (reference value: 45%). It is filed as functional.
Assay [18] deals with Casein kinase I isoform epsilon (Homo sapiens) (UniProt P49674). Put plainly: Inhibition of human recombinant CK1 epsilon expressed in baculovirus-infected Sf9 cells assessed as enzyme residual activity using RRKHAAIGSpAYSITA as substrate at 10 uM incubated for 30 mins in presence of ATP by ADP-Glo kinase assay.
Assay [19] deals with T4, Cyclin-dependent kinase 5/CDK5 activator 1 (Homo sapiens) (UniProt Q00535+Q15078). In words: Inhibition of human recombinant CDK5/p25 expressed in bacteria assessed as enzyme residual activity using histone H1 as substrate at 10 uM incubated for 30 mins in presence of ATP by ADP-Glo kinase assay.
Assay [20] has as its target Casein kinase I isoform epsilon (Homo sapiens) (UniProt P49674). Put plainly: Inhibition of human recombinant CK1 epsilon expressed in baculovirus-infected Sf9 cells assessed as enzyme residual activity using RRKHAAIGSpAYSITA as substrate at 1 uM incubated for 30 mins in presence of ATP by ADP-Glo kinase assay.
For a further assay, the system named is SH-SY5Y. Put plainly: cells. The note with it: Homo sapiens, 48 h.
For assay [21], the system named is U2OS. Put plainly: Induction of cell cycle arrest in human U2OS cells assessed as proportion of cells at G2/M phase at 5 uM incubated for 24 hrs by flow cytometry (reference value: 16%). It is filed as functional.
The test system of assay [22] is U2OS. In words: Induction of cell cycle arrest in human U2OS cells assessed as proportion of cells at S phase at 5 uM incubated for 24 hrs by flow cytometry (reference value: 39%). It is filed as functional.
A further assay concerns HCT-116. Put plainly: cells. The note with it: Homo sapiens, HCT-116, 48 h.
Assay [23] has as its target T4, Cyclin-dependent kinase 5/CDK5 activator 1 (Homo sapiens). In words: Inhibition of human recombinant CDK5/p25 expressed in bacteria assessed as enzyme residual activity using histone H1 as substrate at 1 uM incubated for 30 mins in presence of ATP by ADP-Glo kinase assay.
Assay [24] has as its target Dual specificity protein kinase CLK1 (Mus musculus) (UniProt P22518). Put plainly: Inhibition of recombinant mouse CLK1 expressed in bacteria assessed as enzyme residual activity using GRSRSRSRSRSR as substrate at 10 uM incubated for 30 mins in presence of ATP by ADP-Glo kinase assay.
In assay [25] the target is T2, Serine/threonine-protein kinase pim-1. In words: Inhibition of human recombinant PIM-1 expressed in bacteria using histone H1 as substrate incubated for 30 mins in presence of ATP by ADP-Glo kinase assay.
Target sequence in this assay (P11309 whole entry): as the sequence (P11309 whole entry, looked up) above
The target is the same in assay [26]. Put plainly: Inhibition of human recombinant PIM-1 expressed in bacteria assessed as enzyme residual activity using histone H1 as substrate at 10 uM incubated for 30 mins in presence of ATP by ADP-Glo kinase assay.
Target sequence in this assay (P11309 whole entry, looked up): as the sequence (P11309 whole entry, looked up) above
Assay [27] concerns U2OS. In words: cells. Particulars: Homo sapiens, 48 h.
Description: Antiproliferative activity against human U2OS cells assessed as reduction in cell viability incubated for 48 hrs by MTS assay
For assay [28], the target named is Dual specificity protein kinase CLK1 (Mus musculus) (UniProt P22518). Put plainly: Inhibition of recombinant mouse CLK1 expressed in bacteria assessed as enzyme residual activity using GRSRSRSRSRSR as substrate at 1 uM incubated for 30 mins in presence of ATP by ADP-Glo kinase assay.
Dual specificity protein kinase CLK1 (Mus musculus), sequence (P22518 whole entry, looked up): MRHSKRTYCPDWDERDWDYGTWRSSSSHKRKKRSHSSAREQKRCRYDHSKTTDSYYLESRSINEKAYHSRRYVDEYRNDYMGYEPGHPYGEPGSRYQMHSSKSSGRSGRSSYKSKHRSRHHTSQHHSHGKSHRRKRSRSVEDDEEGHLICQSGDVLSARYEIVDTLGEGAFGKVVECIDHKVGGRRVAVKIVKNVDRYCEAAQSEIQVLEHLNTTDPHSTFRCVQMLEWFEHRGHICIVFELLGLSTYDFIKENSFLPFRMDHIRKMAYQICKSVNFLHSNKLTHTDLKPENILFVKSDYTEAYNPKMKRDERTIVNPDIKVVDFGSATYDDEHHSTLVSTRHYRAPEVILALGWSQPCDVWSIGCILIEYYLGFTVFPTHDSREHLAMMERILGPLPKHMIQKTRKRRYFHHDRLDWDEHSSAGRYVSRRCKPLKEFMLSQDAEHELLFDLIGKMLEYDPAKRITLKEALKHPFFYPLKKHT

Casein kinase I isoform epsilon (Homo sapiens), sequence (P49674 whole entry, looked up, canonical isoform): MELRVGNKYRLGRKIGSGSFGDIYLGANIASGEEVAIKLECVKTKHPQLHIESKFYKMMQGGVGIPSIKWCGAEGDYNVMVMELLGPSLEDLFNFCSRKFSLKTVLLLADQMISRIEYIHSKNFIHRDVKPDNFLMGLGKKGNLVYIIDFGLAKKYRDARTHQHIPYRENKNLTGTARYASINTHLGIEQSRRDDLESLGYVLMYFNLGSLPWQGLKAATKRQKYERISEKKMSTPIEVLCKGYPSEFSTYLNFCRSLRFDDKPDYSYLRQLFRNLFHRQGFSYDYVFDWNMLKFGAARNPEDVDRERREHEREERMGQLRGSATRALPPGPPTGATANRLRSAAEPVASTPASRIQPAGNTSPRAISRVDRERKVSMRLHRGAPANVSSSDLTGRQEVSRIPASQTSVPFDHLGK
Glycogen synthase kinase-3 beta (Homo sapiens), sequence (P49841 whole entry, looked up, the tested form may be a part): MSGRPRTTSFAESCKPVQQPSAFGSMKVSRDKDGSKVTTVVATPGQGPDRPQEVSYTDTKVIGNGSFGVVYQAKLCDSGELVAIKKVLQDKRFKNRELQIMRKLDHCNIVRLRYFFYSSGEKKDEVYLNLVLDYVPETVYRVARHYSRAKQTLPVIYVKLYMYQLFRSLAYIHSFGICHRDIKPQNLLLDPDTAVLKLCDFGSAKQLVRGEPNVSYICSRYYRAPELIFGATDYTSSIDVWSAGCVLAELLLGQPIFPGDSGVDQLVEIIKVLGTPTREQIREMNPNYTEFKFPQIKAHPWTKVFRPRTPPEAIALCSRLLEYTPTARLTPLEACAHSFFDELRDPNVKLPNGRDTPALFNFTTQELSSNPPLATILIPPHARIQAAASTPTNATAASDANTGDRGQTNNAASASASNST
T4 sequence (Q00535 whole entry, canonical isoform): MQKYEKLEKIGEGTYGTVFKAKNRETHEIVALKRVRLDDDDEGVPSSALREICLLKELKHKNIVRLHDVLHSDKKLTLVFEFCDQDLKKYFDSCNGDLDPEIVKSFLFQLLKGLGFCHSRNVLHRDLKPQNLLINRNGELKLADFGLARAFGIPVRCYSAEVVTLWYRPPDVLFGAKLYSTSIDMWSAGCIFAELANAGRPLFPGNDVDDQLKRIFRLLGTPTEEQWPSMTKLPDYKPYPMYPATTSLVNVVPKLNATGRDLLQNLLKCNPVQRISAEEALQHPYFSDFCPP
T4 sequence (Q15078 99-307 partner limits assumed): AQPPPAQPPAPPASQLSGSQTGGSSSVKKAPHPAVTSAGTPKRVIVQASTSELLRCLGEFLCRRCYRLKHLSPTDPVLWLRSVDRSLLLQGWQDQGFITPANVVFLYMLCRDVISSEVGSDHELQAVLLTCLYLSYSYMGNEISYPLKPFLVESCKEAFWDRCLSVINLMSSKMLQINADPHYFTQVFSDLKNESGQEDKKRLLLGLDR
Dual specificity protein kinase CLK1, sequence (P22518 whole entry): as the sequence (P22518 whole entry, looked up) above
Description for HBL-100: Antiproliferative activity against human HBL-100 cells assessed as reduction in cell viability incubated for 48 hrs by MTS assay
Description for HCT-116: Antiproliferative activity against human HCT-116 cells assessed as reduction in cell viability incubated for 48 hrs by MTS assay
Description for SH-SY5Y: Antiproliferative activity against human SH-SY5Y cells assessed as reduction in cell viability incubated for 48 hrs by MTS assay
Description for TERT-RPE1: Cytotoxicity against human TERT-RPE1 cells assessed as reduction in cell viability incubated for 48 hrs by MTS assay

Turning to `CCCNc1ccc2ncc(-c3ccc4[nH]ncc4c3)n2n1`, the Activity in the assay on U2OS [1] came out at 18%; in the assay on U2OS [2], 38%; in the assay with U2OS [3], 44%.
As usually defined, the IC50 is the concentration at which inhibition is half-maximal. The EC50 is the concentration giving half of the maximal effect. Higher therefore signals weaker potency. In the case of `c1cc(-c2c[nH]c3cc4cnccc4cc23)ccn1`, the IC50 in [4] came out at 0.693 µM; in assay [6], 0.076 µM; in assay [10] it was 0.513 µM; in assay [25], 0.479 µM. In addition, the Activity was determined as 39% in the assay on U2OS [5]; 13% with U2OS [7]; 49% in assay [8]; 78% in assay [9]; 92% in assay [11]; 46% in [12]. For the same molecule, the Activity with U2OS [13] was 37%; in assay [14] it was 11%; in assay [15], 54%; in assay [16], 38%; in the assay on U2OS [17] it was 48%; in assay [18] it was 25%. Also, the Activity in assay [19] was 10%; in assay [20], 61%; in the assay with U2OS [21], 18%; in the assay with U2OS [22], 45%; in assay [23] it was 79%; in assay [24], 17%. Also, the Activity worked out at 9% in assay [26] and 46% in [28]. In addition, the EC50 came to 7.8 µM in the assay with TERT-RPE1; 24.1 µM in the assay on HBL-100; 20 µM in the assay with SH-SY5Y; 7.3 µM with HCT-116; 11.2 µM in the assay on U2OS [27].
